Data on 17 compounds can be found in patent publication US11155558B2, “Dual mode of action soluble guanylate cyclase activators and phosphodiesterase inhibitors and uses thereof” (TOPADUR PHARMA AG, priority 2017, dated 2021).

Structures are written as SMILES. Read-outs that look alike come from different tables or passages of the source.

This assay addresses recombinant human (rh) PDE5A (Homo sapiens (Human), UniProt O76074). Put plainly: Phosphodiesterase-5 activity assay (Example 110), radiometric SPA. Type of assay: biochemical. The method, then:
The inhibition of recombinant human (rh) PDE5A by test compounds is measured in a radiometric assay based on Scintillation Proximity Assay (SPA) technology. The substrate [3H]cGMP/cGMP is hydrolysed to [3H] 5′ GMP/5′ GMP contingent on the activity of rhPDE5A. The ensuing [3H] 5′ GMP/5′ GMP but not [3H] cGMP/cGMP binds to SPA yttrium silicate beads in the presence of Zn^++ stimulating the scintillant within the bead to emit light that is detected by a ß-counter. The assay is performed in a 96 well format.
The assay is done in 20 mM Tris HCl pH 7.4, 5 mM MgCl2, […] cGMP/[3H] cGMP (about 60000 dpm/well) substrate with rhPDE5A1 (GST tagged, SIGMA E9034) added to an amount not exceeding 20% cGMP hydrolysis within 20 min in Tris 20 mM pH 7.4 supplemented with 0.01% bovine serum albumin (BSA) in the presence of test compounds or vehicle (0.1% DMSO). The final assay volume amounts to 100 μl and the reaction is run for 20 min at 37° C.
The hydrolysis of [3H] cGMP/cGMP by rhPDE5A is terminated by adding SPA beads at 50 µl/well (Perkin Elmer, RPNQ0024), pre-diluted in water as per manufacturer's instructions and supplemented with 3-isobutyl-1-methylxanthine (1 mM). Beads are allowed to sediment for at least 30 min before measurement in a Wallac Microbeta 2 (Perkin Elmer).
In general, test compounds are added at seven different concentrations from […] in log steps. […] Results (IC50) are given as the mean from at least two independent experiments each performed in triplicate.

As usually defined, the IC50 is the midpoint of a concentration-inhibition curve.

In the case of `CCCOc1ccc(S(=O)(=O)N2CCC([C@H](CO[N+](=O)[O-])O[N+](=O)[O-])CC2)cc1-c1nc2c(CCC)cn(CC)c2c(=O)[nH]1` [Compound 1k, (R)-1-(1-((3-(5-ethyl-4-oxo-7-propyl-4,5-dihydro-3H-pyrrolo[3,2-d]pyrimidin-2-yl)-4-propoxyphenyl)sulfonyl)piperidin-4-yl)ethane-1,2-diyl dinitrate], the half-maximal inhibitory concentration (IC50) is 3.5 nM.
On the same count and under the same terms, the same measure for `CCCOc1ccc(S(=O)(=O)N2CCC([C@@H](CO[N+](=O)[O-])O[N+](=O)[O-])CC2)cc1-c1nc2c(CCC)cn(CC)c2c(=O)[nH]1` [Compound 1l, (S)-1-(1-((3-(5-ethyl-4-oxo-7-propyl-4,5-dihydro-3H-pyrrolo[3,2-d]pyrimidin-2-yl)-4-propoxyphenyl)sulfonyl)piperidin-4-yl)ethane-1,2-diyl dinitrate]: 3.2 nM; for `CCCOc1ccc(S(=O)(=O)N2C[C@@H](CCO[N+](=O)[O-])N(C)[C@@H](CCO[N+](=O)[O-])C2)cc1-c1nc2c(CCC)cn(CC)c2c(=O)[nH]1` [Compound 1m, ((2S,6R)-4-((3-(5-ethyl-4-oxo-7-propyl-4,5-dihydro-3H-pyrrolo[3,2-d]pyrimidin-2-yl)-4-propoxyphenyl)sulfonyl)-1-methylpiperazine-2,6-diyl)bis(ethane-2,1-diyl) dinitrate]: 8.6 nM; for `CCCOc1ccc(S(=O)(=O)N2CCC(CCO[N+](=O)[O-])(CCO[N+](=O)[O-])CC2)cc1-c1nc2c(CCC)cn(CC)c2c(=O)[nH]1` [Compound 1n, (1-((3-(5-ethyl-4-oxo-7-propyl-4,5-dihydro-3H-pyrrolo[3,2-d]pyrimidin-2-yl)-4-propoxyphenyl)sulfonyl)piperidine-4,4-diyl)bis(ethane-2,1-diyl) dinitrate]: 2.7 nM.
In the case of `CCCOc1ccc(S(=O)(=O)N2C[C@H](CCO[N+](=O)[O-])N(C)[C@@H](CCO[N+](=O)[O-])C2)cc1-c1nc2c(CCC)cn(CC)c2c(=O)[nH]1` [Compound 1o, ((2S,6S)-4-((3-(5-ethyl-4-oxo-7-propyl-4,5-dihydro-3H-pyrrolo[3,2-d]pyrimidin-2-yl)-4-propoxyphenyl)sulfonyl)-1-methylpiperazine-2,6-diyl)bis(ethane-2,1-diyl) dinitrate], the half-inhibitory concentration (IC50) came out at 7.1 nM.
Turning to `CCCc1c(/C=N/O)n(C)c2c(=O)[nH]c(-c3cc(S(=O)(=O)N4CCN(CCO[N+](=O)[O-])CC4)ccc3OCC)nc12` [Compound 2g, (E)-2-(4-((4-ethoxy-3-(6-((hydroxyimino)methyl)-5-methyl-4-oxo-7-propyl-4,5-dihydro-3H-pyrrolo[3,2-d]pyrimidin-2-yl)phenyl)sulfonyl)piperazin-1-yl)ethyl nitrate], the IC50 is 31 nM.
As to `CCCOc1ccc(S(=O)(=O)N2CCN(CCCO[N+](=O)[O-])CC2)cc1-c1nc2c(CCC)cn(C)c2c(=O)[nH]1` [Compound 3d, 3-(4-((3-(5-methyl-4-oxo-7-propyl-4,5-dihydro-3H-pyrrolo[3,2-d]pyrimidin-2-yl)-4-propoxyphenyl)sulfonyl)piperazin-1-yl)propyl nitrate], the IC50 was found to be 9 nM.
For the compound `CCCOc1ccc(S(=O)(=O)N2CCN(CCO[N+](=O)[O-])CC2)cc1-c1nc2c(CCC)c(/C=N/O)n(C)c2c(=O)[nH]1` [Compound 3e, (E)-2-(4-((3-(6-((hydroxyimino)methyl)-5-methyl-4-oxo-7-propyl-4,5-dihydro-3H-pyrrolo[3,2-d]pyrimidin-2-yl)-4-propoxyphenyl)sulfonyl)piperazin-1-yl)ethyl nitrate], the IC50 turned out to be 12 nM.
On the same count and under the same terms, the same measure for `CCCOc1ccc(S(=O)(=O)N2CCN(CCCO[N+](=O)[O-])CC2)cc1-c1nc2c(CCC)c(/C=N/O)n(C)c2c(=O)[nH]1` [Compound 3f, (E)-3-(4-((3-(6-((hydroxyimino)methyl)-5-methyl-4-oxo-7-propyl-4,5-dihydro-3H-pyrrolo[3,2-d]pyrimidin-2-yl)-4-propoxyphenyl)sulfonyl)piperazin-1-yl)propyl nitrate]: 42 nM; for `CCCOc1ccc(S(=O)(=O)N2CCC([C@H](CO[N+](=O)[O-])O[N+](=O)[O-])CC2)cc1-c1nc2c(CCC)cn(C)c2c(=O)[nH]1` [Compound 3g, (R)-1-(1-((3-(5-methyl-4-oxo-7-propyl-4,5-dihydro-3H-pyrrolo[3,2-d]pyrimidin-2-yl)-4-propoxyphenyl)sulfonyl)piperidin-4-yl)ethane-1,2-diyl dinitrate]: 23 nM; for `CCCOc1ccc(S(=O)(=O)N2CCC([C@@H](CO[N+](=O)[O-])O[N+](=O)[O-])CC2)cc1-c1nc2c(CCC)cn(C)c2c(=O)[nH]1` [Compound 3h, (S)-1-(1-((3-(5-methyl-4-oxo-7-propyl-4,5-dihydro-3H-pyrrolo[3,2-d]pyrimidin-2-yl)-4-propoxyphenyl)sulfonyl)piperidin-4-yl)ethane-1,2-diyl dinitrate]: 3.7 nM.
In the case of `CCCOc1ccc(S(=O)(=O)N2CCC(CO[N+](=O)[O-])(CO[N+](=O)[O-])CC2)cc1-c1nc2c(CCC)cn(C)c2c(=O)[nH]1` [Compound 3i, (1-((3-(5-methyl-4-oxo-7-propyl-4,5-dihydro-3H-pyrrolo[3,2-d]pyrimidin-2-yl)-4-propoxyphenyl)sulfonyl)piperidine-4,4-diyl)bis(methylene) dinitrate], the half-inhibitory concentration (IC50) was determined as 14 nM.
Same read-out and setting: the same measure for `CCCOc1ccc(S(=O)(=O)N2CCC(CO[N+](=O)[O-])CC2)cc1-c1nc2c(CCC)cn(C)c2c(=O)[nH]1` [Compound 3k, (1-((3-(5-methyl-4-oxo-7-propyl-4,5-dihydro-3H-pyrrolo[3,2-d]pyrimidin-2-yl)-4-propoxyphenyl)sulfonyl)piperidin-4-yl)methyl nitrate]: 15 nM; for `CCCOc1ccc(S(=O)(=O)N2CCC([C@@H](O)CO[N+](=O)[O-])CC2)cc1-c1nc2c(CCC)cn(C)c2c(=O)[nH]1` [Compound 3l, (R)-2-hydroxy-2-(1-((3-(5-methyl-4-oxo-7-propyl-4,5-dihydro-3H-pyrrolo[3,2-d]pyrimidin-2-yl)-4-propoxyphenyl)sulfonyl)piperidin-4-yl)ethyl nitrate]: 2 nM.
Turning to `CCCOc1ccc(S(=O)(=O)N2CCC([C@H](CO[N+](=O)[O-])O[N+](=O)[O-])CC2)cc1-c1nc2c(CCC)c(/C=N/O)n(C)c2c(=O)[nH]1` [Compound 3o, (R,E)-1-(1-((3-(6-((hydroxyimino)methyl)-5-methyl-4-oxo-7-propyl-4,5-dihydro-3H-pyrrolo[3,2-d]pyrimidin-2-yl)-4-propoxyphenyl)sulfonyl)piperidin-4-yl)ethane-1,2-diyl dinitrate], the half-inhibitory concentration (IC50) amounted to 13 nM.
As for `CCCOc1ccc(S(=O)(=O)N2CCC([C@@H](CO[N+](=O)[O-])O[N+](=O)[O-])CC2)cc1-c1nc2c(CCC)c(/C=N/O)n(C)c2c(=O)[nH]1` [Compound 3p, (S,E)-1-(1-((3-(6-((hydroxyimino)methyl)-5-methyl-4-oxo-7-propyl-4,5-dihydro-3H-pyrrolo[3,2-d]pyrimidin-2-yl)-4-propoxyphenyl)sulfonyl)piperidin-4-yl)ethane-1,2-diyl dinitrate], the 50% inhibitory concentration (IC50) stood at 12 nM.
As for `CCCOc1ccc(S(=O)(=O)N2CCC([C@@H](O)CO[N+](=O)[O-])CC2)cc1-c1nc2c(CCC)c(/C=N/O)n(C)c2c(=O)[nH]1` [Compound 3q, (R,E)-2-hydroxy-2-(1-((3-(6-((hydroxyimino)methyl)-5-methyl-4-oxo-7-propyl-4,5-dihydro-3H-pyrrolo[3,2-d]pyrimidin-2-yl)-4-propoxyphenyl)sulfonyl)piperidin-4-yl)ethyl nitrate], the 50% inhibitory concentration (IC50) (asterisk: assay described in Example 110, rhPDE5A1, read-out: IC50) worked out at 3.3 nM.
